Assay results reported in publication PMC8657792, “Interaction Profiles of Central Nervous System Active Drugs at Human Organic Cation Transporters 1–3 and Human Plasma Membrane Monoamine Transporter” (International Journal of Molecular Sciences, 2021).
Read-outs that look alike come from different tables or passages of the source.

Tests used:
[1] = molecular target: T1, hOCT1 (Homo sapiens, UniProt O15245); assay: [3H]MPP+ uptake inhibition assay, HEK293 cells stably expressing hOCT1; assay type: cell-based; details: for Effect on substrate uptake by hOCT1 (in words): [3H]MPP+ uptake, HEK293 hOCT1
T1 construct: expressed in transfected cells
T1 sequence (O15245 1-554): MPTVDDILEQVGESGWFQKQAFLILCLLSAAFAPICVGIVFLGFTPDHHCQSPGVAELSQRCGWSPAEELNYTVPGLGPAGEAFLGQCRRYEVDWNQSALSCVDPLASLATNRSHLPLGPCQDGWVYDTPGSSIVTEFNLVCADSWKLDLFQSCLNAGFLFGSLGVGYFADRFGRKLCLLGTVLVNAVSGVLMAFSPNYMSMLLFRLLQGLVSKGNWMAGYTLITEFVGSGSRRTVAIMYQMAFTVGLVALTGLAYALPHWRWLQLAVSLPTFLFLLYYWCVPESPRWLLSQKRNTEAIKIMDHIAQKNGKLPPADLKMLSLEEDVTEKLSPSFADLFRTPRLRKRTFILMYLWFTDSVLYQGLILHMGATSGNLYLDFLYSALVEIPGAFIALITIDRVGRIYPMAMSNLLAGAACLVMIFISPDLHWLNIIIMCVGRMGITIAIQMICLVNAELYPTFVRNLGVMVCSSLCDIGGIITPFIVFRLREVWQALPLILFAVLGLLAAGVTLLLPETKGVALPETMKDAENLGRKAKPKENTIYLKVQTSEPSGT
Description: (§1) HEK293 cells were transfected with a plasmid, encoding the transporter of interest and an N-terminal YFP-tag, carried out using jetPRIME ^© (Polyplus Transfection; (VWR International GmbH, Vienna, Austria)) reagent (for a 10 cm dish with 1–2 × 10^6 cells in 10 mL serum containing medium at 60–80% confluency: 500 μ L jetPRIME ^© buffer, 10 μ g DNA and 20 μ L jetPRIME ^© reagent) and selection pressure maintained for two weeks [2, 54, 55]. Subsequently, 500,000 cells were FACS-sorted (fluorescence-activated cell sorting) according to expression level to establish cell lines stably expressing the protein of interest. […] For uptake inhibition assays, cells were cultured at a subconfluent (80–90% density) state in high-glucose Dulbecco’s Modified Eagle Medium (DMEM ), enriched with 10% heat-inactivated Fetal Bovine Serum (FBS) and penicillin/streptomycin (PS; 100 U × 100 mL ^−1 , each). Selection pressure was maintained by the addition of geneticin (50 mg × mL ^−1 ) at 37 ^∘ C and 5% CO 2 in a humidified incubator. At a density of 60,000 cells per well, HEK293 cells expressing the respective transporter were seeded onto poly-D-lysine-coated wells 24 h prior to uptake inhibition experiments in a final volume of 200 μ L per well.
(§2) Prior to the addition of the respective compounds, DMEM was removed from all wells and replaced with 200 μ L of Krebs-HEPES-buffer (KHB; 10 mM HEPES, 120 mM NaCl, 3 mM KCl, 2 mM CaCl 2 , 2 mM MgSO 4 and 20 mM D-glucose, pH adjusted to 7.3) at room temperature. Cells were exposed to a pre-incubation solution containing the compound of interest in the respective concentration (dissolved in Krebs-HEPES-buffer) for 10 min with a total volume of 50 μ L, which was then replaced with a 50 μ L uptake solution containing 0.05 μ M of tritiated 1-methyl-4-phenylpyridinium ([ ^3 H]MPP ^+ ) as substrate, and the compound of interest in respective concentrations, for 10 minutes each. Finally, uptake was terminated by washing with 200 μ L of ice-cold (4 ^∘ C) KHB, after which cells were lysed with 200 μ L of 1% sodium dodecyl sulphate (SDS). After transferring the solution of each well into 6 mL counting vials containing 2 mL of scintillation cocktail, the vials were measured with a beta-scintillation counter for quantification of the uptake of tritiated substrate. […] To obtain specific data, non-specific uptake was assessed in the presence of 100 μ M D22 and subtracted from the total data. The 100% values were defined as uptake in the absence of a tested substance, defining maximal uptake capacity. Inhibitions of the compound of interest were described as a percentage of the maximal uptake capacity.
(§3) Half-maximal inhibitory concentration ( IC50 ) values of each substance were calculated and plotted using GraphPad Prism 8.4.3 (GraphPad Software Inc., San Diego, CA, USA). IC50 was determined by non-linear regression, solving the equation Y=Bottom+(Top−Bottom)/(1+10^X−LogEC50) . […] All data stem from a minimum of three separate experiments (n≥ 3) executed in triplicates and are shown as mean ± SD.

[2] = molecular target: T2, hOCT2 (Homo sapiens, UniProt O15244); assay: [3H]MPP+ uptake inhibition assay, HEK293 cells stably expressing hOCT2; assay type: cell-based; details: for Effect on substrate uptake by hOCT2 (in words): [3H]MPP+ uptake, HEK293 hOCT2
T2 construct: expressed in transfected cells
T2 sequence (O15244 1-555): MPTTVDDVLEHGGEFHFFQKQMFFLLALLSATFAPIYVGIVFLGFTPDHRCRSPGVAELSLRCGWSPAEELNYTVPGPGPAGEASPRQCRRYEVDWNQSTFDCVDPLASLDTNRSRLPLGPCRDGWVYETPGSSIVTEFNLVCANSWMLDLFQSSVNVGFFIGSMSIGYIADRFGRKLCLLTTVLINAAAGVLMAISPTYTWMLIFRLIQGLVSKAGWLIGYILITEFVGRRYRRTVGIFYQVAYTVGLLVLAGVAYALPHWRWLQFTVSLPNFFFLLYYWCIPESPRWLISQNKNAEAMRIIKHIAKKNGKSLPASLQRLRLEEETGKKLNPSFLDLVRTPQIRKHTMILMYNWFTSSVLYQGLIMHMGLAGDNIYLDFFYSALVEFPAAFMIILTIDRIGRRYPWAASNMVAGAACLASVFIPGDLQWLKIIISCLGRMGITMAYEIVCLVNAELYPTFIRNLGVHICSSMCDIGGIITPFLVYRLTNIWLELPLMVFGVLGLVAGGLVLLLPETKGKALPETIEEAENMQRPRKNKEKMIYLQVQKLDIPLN
Description: as §1, §2, §3

[3] = molecular target: T3, hOCT3 (Homo sapiens, UniProt O75751); assay: [3H]MPP+ uptake inhibition assay, HEK293 cells stably expressing hOCT3; assay type: cell-based; details: for Effect on substrate uptake by hOCT3 (in words): [3H]MPP+ uptake, HEK293 hOCT3
T3 construct: expressed in transfected cells
T3 sequence (O75751 1-556): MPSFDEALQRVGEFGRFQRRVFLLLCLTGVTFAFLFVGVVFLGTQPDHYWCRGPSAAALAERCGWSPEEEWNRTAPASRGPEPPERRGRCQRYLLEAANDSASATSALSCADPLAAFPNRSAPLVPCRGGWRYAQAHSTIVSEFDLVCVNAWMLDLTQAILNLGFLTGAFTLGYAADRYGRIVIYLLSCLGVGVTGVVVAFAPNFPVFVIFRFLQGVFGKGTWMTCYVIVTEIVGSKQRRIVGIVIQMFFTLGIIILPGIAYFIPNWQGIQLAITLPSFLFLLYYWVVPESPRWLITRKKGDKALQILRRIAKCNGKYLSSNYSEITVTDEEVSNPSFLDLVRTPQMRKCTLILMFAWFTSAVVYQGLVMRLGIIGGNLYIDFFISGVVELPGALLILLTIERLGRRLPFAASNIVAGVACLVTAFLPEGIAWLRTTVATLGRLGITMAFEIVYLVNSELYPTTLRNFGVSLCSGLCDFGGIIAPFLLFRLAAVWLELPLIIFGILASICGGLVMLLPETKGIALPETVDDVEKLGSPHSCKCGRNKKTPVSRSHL
Description: as §1, §2, §3

[4] = molecular target: T4, hPMAT (Homo sapiens, UniProt Q7RTT9); assay: [3H]MPP+ uptake inhibition assay, HEK293 cells stably expressing hPMAT; assay type: cell-based; details: for Effect on substrate uptake by hPMAT (in words): [3H]MPP+ uptake, HEK293 hPMAT
T4 construct: expressed in transfected cells
T4 sequence (Q7RTT9 1-530): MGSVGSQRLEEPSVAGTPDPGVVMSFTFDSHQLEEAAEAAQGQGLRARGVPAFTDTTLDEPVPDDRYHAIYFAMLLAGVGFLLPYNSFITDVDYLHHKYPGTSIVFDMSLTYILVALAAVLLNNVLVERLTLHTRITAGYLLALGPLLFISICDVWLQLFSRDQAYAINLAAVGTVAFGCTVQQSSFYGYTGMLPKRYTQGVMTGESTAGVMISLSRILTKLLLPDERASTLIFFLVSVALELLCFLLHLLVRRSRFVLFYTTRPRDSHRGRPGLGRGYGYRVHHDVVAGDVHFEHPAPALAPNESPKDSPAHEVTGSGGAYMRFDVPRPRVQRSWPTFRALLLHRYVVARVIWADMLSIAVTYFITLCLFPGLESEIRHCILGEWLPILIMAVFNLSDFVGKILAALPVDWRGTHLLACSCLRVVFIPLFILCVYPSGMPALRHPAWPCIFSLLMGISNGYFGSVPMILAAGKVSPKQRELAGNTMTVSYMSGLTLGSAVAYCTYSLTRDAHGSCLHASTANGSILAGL
Description: as §1, §2, §3

[5] = molecular target: T1, hOCT1; details: Table S1, supplementary reference list, cited from earlier work; for Ki: read-out: IC50 literature hOCT1 (Ki), Ki values; for IC50: read-out: IC50 literature hOCT1
[6] = molecular target: T2, hOCT2; details: Table S1, supplementary reference list, cited from earlier work; for Ki: read-out: IC50 literature hOCT2 (Ki), Ki values
[7] = molecular target: T3, hOCT3; details: Table S1, supplementary reference list, cited from earlier work
[8] = HEK293 stably expressing hPMAT, 0.05 μM [3H]MPP+, 10 min pre-incubation, 10 min uptake, brackets in Table S1 = 95%-CI, n.s. = non-significant
[9] = HEK293 stably expressing hOCT3, 0.05 μM [3H]MPP+, 10 min pre-incubation, 10 min uptake, brackets in Table S1 = 95%-CI, n.s. = non-significant
[10] = HEK293 stably expressing hOCT1, 0.05 μM [3H]MPP+, 10 min pre-incubation, 10 min uptake, brackets in Table S1 = 95%-CI, n.s. = non-significant, read-out: IC50 hOCT1 (inhibitory potency, [3H]MPP+ uptake)
[11] = HEK293 stably expressing hOCT2, 0.05 μM [3H]MPP+, 10 min pre-incubation, 10 min uptake, brackets in Table S1 = 95%-CI, n.s. = non-significant, read-out: IC50 hOCT2 (inhibitory potency, [3H]MPP+ uptake)
[12] = HEK293 stably expressing hPMAT, 0.05 μM [3H]MPP+, 10 min pre-incubation, 10 min uptake, brackets in Table S1 = 95%-CI, n.s. = non-significant, read-out: IC50 hPMAT (inhibitory potency, [3H]MPP+ uptake)
[13] = HEK293 stably expressing hOCT1, 0.05 μM [3H]MPP+, 10 min pre-incubation, 10 min uptake, brackets in Table S1 = 95%-CI, n.s. = non-significant
[14] = HEK293 stably expressing hOCT2, 0.05 μM [3H]MPP+, 10 min pre-incubation, 10 min uptake, brackets in Table S1 = 95%-CI, n.s. = non-significant

| Structure (SMILES) | IC50 [1] [µM] | IC50 [2] [µM] | IC50 hPMAT (inhibitory potency, [3H]MPP+ uptake) [4, 8] | IC50 hOCT3 (inhibitory potency, [3H]MPP+ uptake) [3, 9] | Effect on substrate uptake by hOCT3 (in words) [3] | Effect on substrate uptake by hPMAT (in words) [4] | further results |
| --- | --- | --- | --- | --- | --- | --- | --- |
| CNC1(c2ccccc2F)CCCCC1=O (centres unmarked) [2-Fluoro-deschloroketamine, 2-fluoro-deschloroketamine] | 14.1 | 19.2 | n.s. |  |  |  | IC50 [3]: 265 µM |
| COC(=O)[C@H]1[C@@H](OC(=O)c2ccccc2)C[C@@H]2CC[C@H]1N2C [Cocaine, cocaine] | 6.66 | 27.8 | n.s. | n.s. |  |  | Ki [5]: 85 ± 22 µM; Ki [6]: 113 ± 21 µM |
| CCN1/C(=C/c2ccc3ccccc3[n+]2CC)C=Cc2ccccc21 [Decynium-22] |  |  |  |  |  |  | IC50 [1, 10]: 2.66 µM; IC50 [2, 11]: 4.56 µM; IC50 ([3]; HEK293 stably expressing hOCT3, 0.05 μM [3H]MPP+, 10 min pre-incubation, 10 min uptake, brackets in Table S1 = 95%-CI, n.s. = non-significant, read-out: IC50 hOCT3 (inhibitory potency, [3H]MPP+ uptake)): 0.16 µM; IC50 [4, 12]: 0.35 µM |
| CNC1(c2ccccc2Cl)CCCCC1=O (centres unmarked) [Ketamine, ketamine] | 23.5 | 12.5 |  |  |  |  | IC50 [3]: 1030 µM; IC50 [4]: 135 µM; IC50 literature hOCT1 (Km) ([5]; Km): 73.9 ± 15.2 µM; Ki [5]: 115 ± 43.7 µM; IC50 literature hOCT2 (Km) ([6]; Km): 33.5 ± 20.3 µM; Ki [6]: 22.7 ± 6.3 µM; IC50 literature hOCT3 (Km) ([7]; Km): 52.9 ± 15.0 µM; Ki ([7]; read-out: IC50 literature hOCT3 (Ki), Ki values): 226 ± 65 µM; IC50 ([7]; read-out: IC50 literature hOCT3, ASP+ as substrate): 440 µM |
| COC(=O)C(c1ccccc1)C1CCCCN1 (centres unmarked) [Methylphenidate, methylphenidate] | 0.36 | 28.8 | n.s. | n.s. |  |  |  |
| NC(=O)C[S+]([O-])C(c1ccccc1)c1ccccc1 (centres unmarked) [Modafinil, modafinil] |  |  | n.s. | n.s. | did not interact | did not interact | IC50 hOCT1 (inhibitory potency, [3H]MPP+ uptake) [1, 13]: n.s.; Effect on substrate uptake by hOCT1 (in words) [1]: did not interact; IC50 hOCT2 (inhibitory potency, [3H]MPP+ uptake) [2, 14]: n.s.; Effect on substrate uptake by hOCT2 (in words) [2]: did not interact |
| CN(C)C[C@H]1CCCC[C@]1(O)c1cccc(O)c1 [O-Desmethyltramadol, O-desmethyltramadol] | 24.2 | 372 | n.s. | n.s. | No interaction |  | IC50 [5]: 172 µM |
| CCC1(c2ccccc2)C(=O)NC(=O)NC1=O [Phenobarbital, phenobarbital] |  |  |  | n.s. | not interacting | not interacting | IC50 hOCT1 (inhibitory potency, [3H]MPP+ uptake) [1, 13]: n.s.; Effect on substrate uptake by hOCT1 (in words) [1]: increased uptake of substrate; IC50 hOCT2 (inhibitory potency, [3H]MPP+ uptake) [2, 14]: n.s.; Effect on substrate uptake by hOCT2 (in words) [2]: increased uptake of substrate; IC50 [4]: 1030 µM |
| CN(C)CCc1c[nH]c2cccc(O)c12 [Psilocin, psilocin] | 63.5 |  |  | n.s. | did not inhibit | did not inhibit | Effect on substrate uptake by hOCT1 (in words) [1]: did not inhibit; IC50 hOCT2 (inhibitory potency, [3H]MPP+ uptake) [2, 14]: n.s.; Effect on substrate uptake by hOCT2 (in words) [2]: did not inhibit; IC50 [4]: 698 µM |
| CCC[C@H](C(=O)c1ccccc1)N1CCCC1 [R- α -PVP, R- α -pyrrolidinovalerophenone] | 2.15 | 13.1 | n.s. |  |  | increased uptake of substrate | IC50 [3]: 1020 µM |
| CN(C)CCC[C@]1(c2ccc(F)cc2)OCc2cc(C#N)ccc21 [R-Citalopram, R-citalopram] |  |  |  |  |  |  | IC50 [1, 10]: 5.11 µM; IC50 [2, 11]: 46.6 µM; IC50 [4, 12]: 58.3 µM |
| CCC[C@@H](C(=O)c1ccccc1)N1CCCC1 [S- α -PVP, S- α -pyrrolidinovalerophenone] | 1.07 | 15 | n.s |  |  | increased uptake of substrate | IC50 [3]: 457 µM |
| CN(C)CCC[C@@]1(c2ccc(F)cc2)OCc2cc(C#N)ccc21 [S-Citalopram, S-citalopram] |  |  |  |  |  |  | IC50 [1, 10]: 7.15 µM; IC50 [2, 11]: 59.9 µM; IC50 [4, 12]: 160 µM |
| COc1cccc(C2(O)CCCCC2CN(C)C)c1 (centres unmarked) [Tramadol, tramadol] | 5.6 | 64.1 |  | n.s. | No interaction | fails to fully inhibit | Effect on substrate uptake by hOCT2 (in words) [2]: fails to fully inhibit; IC50 [4]: 74.2 µM; IC50 [5]: 30 µM |
